Assay [1] has as its target T1, GK-GKRP (glucokinase / glucokinase regulatory protein) (Homo sapiens, UniProt Q14397).
T1 sequence (Q14397 1-625): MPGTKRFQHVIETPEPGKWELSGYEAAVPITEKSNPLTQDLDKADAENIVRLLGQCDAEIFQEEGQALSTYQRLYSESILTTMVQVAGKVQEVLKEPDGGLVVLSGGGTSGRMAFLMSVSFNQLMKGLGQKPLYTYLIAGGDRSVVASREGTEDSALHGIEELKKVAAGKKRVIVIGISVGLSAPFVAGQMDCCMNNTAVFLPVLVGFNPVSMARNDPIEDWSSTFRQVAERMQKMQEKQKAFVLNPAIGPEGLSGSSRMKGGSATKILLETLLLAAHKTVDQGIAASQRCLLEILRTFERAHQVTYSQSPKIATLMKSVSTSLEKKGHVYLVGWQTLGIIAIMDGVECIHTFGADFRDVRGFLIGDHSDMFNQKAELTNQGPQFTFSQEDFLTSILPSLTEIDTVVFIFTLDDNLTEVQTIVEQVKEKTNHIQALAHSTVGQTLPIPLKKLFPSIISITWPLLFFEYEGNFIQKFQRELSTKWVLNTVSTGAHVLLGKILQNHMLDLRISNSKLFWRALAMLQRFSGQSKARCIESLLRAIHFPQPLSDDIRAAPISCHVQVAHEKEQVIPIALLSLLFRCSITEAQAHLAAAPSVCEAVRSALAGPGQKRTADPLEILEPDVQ
Briefly: GKRP LC MS/MS Biochemical Assay (LCMS/MS). The settings on record: formation of 13C-glucose-6-phosphate from 13C-glucose by LC MS/MS, human His-hepatic GK, fructose-6-phosphate. In outline:
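Human His-tagged hepatic GK (30 nM working stock, 5×) with GKRP in 50 mM Tris pH 7.5, 4 mM MgCl2, 6% DMSO; compound preincubated 30 min, then GK added for 30 min at room temperature. Acetonitrile-stopped; 13C-glucose-6-phosphate formed from 13C-glucose quantified by LC MS/MS.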

In assay [2] the target is T2, GK-GKRP (interaction between glucokinase and glucokinase regulatory protein) (Homo sapiens, UniProt Q14397).
T2 construct: made in house; host or cells: GKRP: baculovirus system
T2 sequence (Q14397 1-625): T1 sequence (Q14397 1-625)
Description: GK-GKRP Binding Assay (Binding), AlphaScreen. The conditions noted are these: avi-tagged GKRP, GK-fluorescein, AlphaScreen beads, 1 μM sorbitol-6-phosphate; read-out: GK-GKRP IC50 (Binding). In outline: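 Biotinylated, C-terminally avi-tagged human GKRP was preincubated 20 min at room temperature with compound, then fluorescein-labelled human hepatic GK was added (6 nM in the added buffer). The mix was incubated 2 h at room temperature in the dark before AlphaScreen reading. Buffer was 20 mM Tris pH 7.5, 0.05% BSA, 1 mM DTT, 1 μM sorbitol-6-phosphate.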

Broadly, the EC50 is the concentration that produces a half-maximal response. The low end stands for greater potency, the high end for weaker potency. As a reminder, the IC50 is the midpoint of a concentration-inhibition curve. Regarding `C[C@](O)(c1ccnc(-c2cccc3cc([C@H](NS(=O)(=O)c4ccc5c(c4)OCCCO5)c4ccccc4)sc23)c1)C(F)(F)F` (single isomer, unassigned) [Example 70 Peak #2], it took 22 nM to reach a half-maximal effect in assay [1] (EC50). The IC50 in assay [2] was 6 nM.

Compound `C[C@@](O)(c1ccnc(-c2cccc3cc([C@@H](NS(=O)(=O)c4ccc5c(c4)OCCCO5)c4ccccc4)sc23)c1)C(F)(F)F` (single isomer, unassigned) [Example 70 Peak #3] came in with an EC50 in assay [1] of 170 nM. Moreover, the IC50 in assay [2] was 330 nM.

`C[C@](O)(c1ccnc(-c2cccc3cc([C@@H](NS(=O)(=O)c4ccc5c(c4)OCCCO5)c4ccccc4)sc23)c1)C(F)(F)F` (single isomer, unassigned) [Example 70 Peak #4]: in assay [1], the EC50 is 74 nM. Moreover, the IC50 in assay [2] worked out at 110 nM.

As to `O=S(=O)(N[C@H](c1ccccc1)c1cc2cccc(-c3ccccn3)c2s1)c1ccc2c(c1)OCCCO2` (single isomer, unassigned) [Example 71 Peak #2], the EC50 in assay [1] worked out at 120 nM. Further, the IC50 in assay [2] turned out to be 350 nM.

Source of the values: patent US20140155415A1, “BENZ[…] BENZODIOXINE COMPOUNDS THAT INTERACT WITH G[…] FOR THE TREATMENT OF DIABETES” (priority 2011, published 2014).
